Experimental data as given in PubChem BioAssay (NCI).
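Growth conditions: 96-well plates. Treatment: test compound, 48 hours, 5 concentrations. Analysis: linear interpolation between bracketing concentrations; unreached endpoints set to highest concentration. GI50: concentration for 50% inhibition of growth. At the TGI there is no net growth.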

Columns and labels:
Assay in all cases: DTP human tumour cell line panel, 48 h
SNB-75 CNS = tested on: SNB-75 CNS
M14 melanoma = tested on: M14 melanoma
SNB-19 CNS = tested on: SNB-19 CNS
IGROV1 ovarian = tested on: IGROV1 ovarian
KM12 colon = tested on: KM12 colon
OVCAR-8 ovarian = tested on: OVCAR-8 ovarian
BT-549 breast = tested on: BT-549 breast
HL-60(TB) leukemia = tested on: HL-60(TB) leukemia
TK-10 renal = tested on: TK-10 renal
CAKI-1 renal = tested on: CAKI-1 renal

| SMILES | GI50 (SNB-75 CNS) | TGI (SNB-75 CNS) | GI50 (M14 melanoma) | TGI (M14 melanoma) | GI50 (SNB-19 CNS) | TGI (SNB-19 CNS) | GI50 (IGROV1 ovarian) | TGI (IGROV1 ovarian) | GI50 (KM12 colon) | TGI (KM12 colon) | GI50 (OVCAR-8 ovarian) | TGI (OVCAR-8 ovarian) | GI50 (BT-549 breast) | TGI (BT-549 breast) | GI50 (HL-60(TB) leukemia) | TGI (HL-60(TB) leukemia) | GI50 (TK-10 renal) | TGI (TK-10 renal) | GI50 (CAKI-1 renal) | TGI (CAKI-1 renal) |
| --- | --- | --- | --- | --- | --- | --- | --- | --- | --- | --- | --- | --- | --- | --- | --- | --- | --- | --- | --- | --- |
| Cc1cc(O[C@@H]2O[C@@H](C)[C@H](O)[C@@H](O)[C@H]2O)c2c3c(c(O[C@@H]4O[C@@H](C)[C@H](O)[C@@H](O)[C@H]4O)cc2c1)C(=O)c1c(O)cccc1C3=O | > 30 µM | > 30 µM | > 30 µM | > 30 µM | > 30 µM | > 30 µM | > 30 µM | > 30 µM | > 30 µM | > 30 µM | > 30 µM | > 30 µM | > 30 µM | > 30 µM | > 30 µM | > 30 µM |  |  |  |  |
| COC1=CC(c2ccc[nH]2)=N/C1=C\c1[nH]c(C)c(C(=O)Oc2ccccc2)c1C | 0.274 µM |  |  |  | 1.29 µM | > 100 µM |  |  | 0.118 µM | 1.69 µM | 0.288 µM | 1.45 µM | 0.384 µM | 4.2 µM |  |  | 0.336 µM | 2.55 µM | 0.0679 µM |  |
| Cc1ccc2nc(Sc3c([N+](=O)[O-])ncn3C)[nH]c2c1 |  | 89.3 µM |  | 92.5 µM |  | > 100 µM |  | 65.6 µM |  | > 100 µM |  | 41 µM |  |  |  |  |  | > 100 µM |  | 27.5 µM |
| CC12CC/C(=N/NC(N)=O)C3C1CCCC32 |  | > 100 µM |  | > 100 µM |  | > 100 µM |  | > 100 µM |  | > 100 µM |  | > 100 µM |  |  |  | > 100 µM |  | > 100 µM |  | > 100 µM |
| CC12CCCC(C#N)(C1)OC2=O (stereo unspecified) |  | > 100 µM |  | > 100 µM |  | > 100 µM |  | > 100 µM |  | > 100 µM |  | > 100 µM |  |  |  | > 100 µM |  | > 100 µM |  | > 100 µM |
| CCc1cccc(C)c1N1C(=O)C(=O)C(c2nc3ccccc3o2)/C(=N/NC(=S)NN)C1=O (stereo unspecified) |  | > 100 µM |  | > 100 µM |  | > 100 µM |  | > 100 µM |  | > 100 µM |  | > 100 µM |  |  |  | > 100 µM |  | > 100 µM |  | > 100 µM |
| O=C1C(Cl)=C(Cl)C(=O)N1c1ccccc1Cl |  | > 100 µM |  | > 100 µM |  | > 100 µM |  | > 100 µM |  | > 100 µM |  | > 100 µM |  |  |  | 21.7 µM |  | > 100 µM |  | > 60.9 µM |
| O=C(O)CCC(=O)Oc1ccc(O)c2c1CCCC2=O |  | > 100 µM |  | > 100 µM |  | > 100 µM |  | > 100 µM |  | > 100 µM |  | > 100 µM |  |  |  | > 100 µM |  | > 100 µM |  |  |
| CCC[CH2][Sn]1([CH2]CCC)[O]C(=O)CN=C(C)c2ccccc2[O]1 | 0.735 µM | 2.34 µM | 1.37 µM | 2.67 µM | 1.09 µM | 2.29 µM | 2.83 µM | > 100 µM | 1.27 µM | 2.58 µM | 1.39 µM | 2.83 µM |  |  |  |  | 0.586 µM | 1.78 µM | 0.534 µM | 2.1 µM |
